The values that follow come from patent US20220370453A1 (Storm Therapeutics Ltd, priority 2019, published 2022).

Test [1] has as its target T1, BCDIN3D (Homo sapiens, UniProt Q7Z5W3).
T1 sequence (Q7Z5W3 1-292): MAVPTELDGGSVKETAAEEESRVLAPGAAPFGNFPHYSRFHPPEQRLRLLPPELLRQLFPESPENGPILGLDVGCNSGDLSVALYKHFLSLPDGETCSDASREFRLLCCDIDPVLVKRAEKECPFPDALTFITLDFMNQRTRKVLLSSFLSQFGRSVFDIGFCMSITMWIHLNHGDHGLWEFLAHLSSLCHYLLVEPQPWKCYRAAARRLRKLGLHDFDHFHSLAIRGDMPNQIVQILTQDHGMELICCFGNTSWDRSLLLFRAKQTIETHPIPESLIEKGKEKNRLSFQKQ
The test can be described thus: BCDIN3D IC50 RFMS (RapidFire) assay with mini-helix. As to conditions: 25 nM enzyme. Type of test: biochemical. The method, boiled down:
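SAH formation was measured by RapidFire mass spectrometry with D4- and 13C10-SAH internal standards after TCA quench. Substrates 6 μM SAM and 0.2 μM mini-helix reacted 1 h at 37 °C with 25 nM enzyme, which had been preincubated 10 min with compound (1% DMSO) in Tris pH 8.0 buffer with DTT, EDTA, BSA.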

Test [2] has as its target T1, BCDIN3D. The test can be described thus: BCDIN3D InCellPulse thermal stability assay in transfected A549 cells. It is filed as cell-based. As to conditions: heat shock 58° C. 15 min. Put shortly:
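Thermal stabilisation read-out: after a 15 min 58 °C heat shock, ePL-tagged BCDIN3D in transiently transfected A549 cells (1500/well) was quantified by enzyme-fragment complementation luminescence. Compounds were pre-incubated with cells 1 h at 37 °C, 0.6% DMSO final.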

Setting [3] is: mini-helix substrate 0.2 μM, SAM 6 μM.
Where [4] appears, read: transiently transfected A549 cells.
The mark [5] stands for this setting: mini-helix 0.2 μM and SAM 6 μM as substrates, 1 hr at 37° C.
Where [6] appears, read: A549 cells transiently transfected with ePL-BCDIN3D, 1 h pre-incubation.

By IC50 is commonly meant the concentration that inhibits the measured activity by half. Consider `C#CCCC1(CCOc2ccc(CNc3nc(NCC4(N)CC4)nc4c3cnn4C)cc2Cl)N=N1` [Compound 2.51, 6-N-[(1-aminocyclopropyl)methyl]-4-N-[[4-[2-(3-but-3-ynyldiazirin-3-yl)ethoxy]-3-chlorophenyl]methyl]-1-methylpyrazolo[3,4-d]pyrimidine-4,6-diamine], for which the IC50 at BCDIN3D [1] (setting [3]) was 179 nM; against BCDIN3D [2] (setting [4]), 252 nM.

Take `Cn1ncc2c(NCC3CC3(Cl)Cl)nc(NC[C@H](N)c3ccccc3)nc21` (stereo partly drawn) [Compound 4.115, N6-[(2R)-2-amino-2-phenyl-ethyl]-N4-[(2,2-dichlorocyclopropyl)methyl]-1-methyl-pyrazolo[3,4-d]pyrimidine-4,6-diamine]: the IC50 is 39 nM on BCDIN3D [1] (setting [3]) and 271 nM at BCDIN3D [2] (setting [4]).

Take `Cn1ncc2c(Nc3cccc(F)c3)nc(NCC3(N)CC3)nc21` [Compound 2.29, 6-N-[(1-aminocyclopropyl)methyl]-4-N-(3-fluorophenyl)-1-methylpyrazolo[3,4-d]pyrimidine-4,6-diamine]: the IC50 on BCDIN3D [1] (setting [3]) was 444 nM; against BCDIN3D [2] (setting [4]), 3000 nM.

Take `Cn1ncc2c(NC3(C(F)(F)F)CC3)nc(NC[C@H](N)c3ccccc3)nc21` [Compound 4.78, N6-[(2R)-2-amino-2-phenyl-ethyl]-1-methyl-N4-[1-(trifluoromethyl)cyclopropyl]pyrazolo[3,4-d]pyrimidine-4,6-diamine]: the IC50 turned out to be 769 nM against BCDIN3D [1] (setting [3]) and 379 nM against BCDIN3D [2] (setting [4]).

For the molecule `Cn1ncc2c(Nc3ccc(C(F)(F)F)cc3)nc(NCC(N)c3ccccn3)nc21` (centres unmarked) [Compound 5.03, 6-N-(2-amino-2-pyridin-2-ylethyl)-1-methyl-4-N-[4-(trifluoromethyl)phenyl]pyrazolo[3,4-d]pyrimidine-4,6-diamine], the IC50 against BCDIN3D [1] (setting [3]) turned out to be 89.4 nM; at BCDIN3D [2] (setting [4]), 436 nM.

`CC(C)Oc1ccc(Nc2nc(NCC3(N)CC3)nc3c2cnn3C)cc1` [Compound 2.22, 6-N-[(1-aminocyclopropyl)methyl]-1-methyl-4-N-(4-propan-2-yloxyphenyl)pyrazolo[3,4-d]pyrimidine-4,6-diamine]: the figures for the IC50 at BCDIN3D [1] (setting [3]) and against BCDIN3D [2] (setting [4]) were 332 nM and 1500 nM, respectively.

`COc1ccc(CNc2nc(NCC(C)(C)N)nc3c2c(C)nn3C)cc1Cl` [Compound 1.30, N6-(2-amino-2-methylpropyl)-N4-[(3-chloro-4-methoxyphenyl)methyl]-1,3-dimethyl-1H-pyrazolo[3,4-d]pyrimidine-4,6-diamine]: the results for the half-maximal inhibitory concentration (IC50) at BCDIN3D [1] (setting [5]) and against BCDIN3D [2] (setting [6]) were 1850 nM and 3790 nM, respectively.

For the molecule `Cc1ccc(CNc2nc(NCC(N)c3cccnc3)nc3c2cnn3C)cc1Cl` (centres unmarked) [Compound 5.07, 6-N-(2-amino-2-pyridin-3-ylethyl)-4-N-[(3-chloro-4-methylphenyl)methyl]-1-methylpyrazolo[3,4-d]pyrimidine-4,6-diamine], the half-inhibitory concentration (IC50) amounted to 135 nM against BCDIN3D [1] (setting [3]) and 882 nM against BCDIN3D [2] (setting [4]).

Take `Cn1ncc2c(NCc3ccc(F)c(Cl)c3)nc(NCC3(N)CC3)nc21` [Compound 2.02, 6-N-[(1-Aminocyclopropyl)methyl]-4-N-[(3-chloro-4-fluorophenyl)methyl]-1-methylpyrazolo[3,4-d]pyrimidine-4,6-diamine]: the IC50 was found to be 505 nM against BCDIN3D [1] (setting [3]) and 1910 nM against BCDIN3D [2] (setting [4]).

Take `Cn1ncc2c(NC3CC3)nc(NCC(N)c3ccccc3)nc21` (centres unmarked) [Compound 4.43, 6-N-(2-amino-2-phenylethyl)-4-N-cyclopropyl-1-methylpyrazolo[3,4-d]pyrimidine-4,6-diamine]: the values for the IC50 at BCDIN3D [1] (setting [3]) and at BCDIN3D [2] (setting [4]) were 2560 nM and 4200 nM, respectively.

Take `Cn1ncc2c(NCc3cccc(C(F)(F)F)c3)nc(NCCN)nc21` [Compound 1.23, N6-(2-aminoethyl)-1-methyl-N4-{[3-(trifluoromethyl)phenyl]methyl}-1H-pyrazolo[3,4-d]pyrimidine-4,6-diamine]: the half-maximal inhibitory concentration (IC50) against BCDIN3D [1] (setting [5]) was 7720 nM; against BCDIN3D [2] (setting [6]), 8470 nM.

For `Cn1ncc2c(Nc3cc(F)ccc3F)nc(NCC3(N)CC3)nc21` [Compound 2.25, 6-N-[(1-aminocyclopropyl)methyl]-4-N-(2,5-difluorophenyl)-1-methylpyrazolo[3,4-d]pyrimidine-4,6-diamine], the half-inhibitory concentration (IC50) against BCDIN3D [1] (setting [3]) came out at 1540 nM; at BCDIN3D [2] (setting [4]) it was 3520 nM.

Take `CNc1nc(NCC(N)c2cccc(Br)c2)nc2c1cnn2C` (centres unmarked) [Compound 5.17, 6-N-[2-amino-2-(3-bromophenyl)ethyl]-4-N,1-dimethylpyrazolo[3,4-d]pyrimidine-4,6-diamine]: the IC50 at BCDIN3D [1] (setting [3]) was 470 nM; against BCDIN3D [2] (setting [4]) it was 1870 nM.

On to `Cn1ncc2c(NCC(C)(F)F)nc(NC[C@H](N)c3ccccc3)nc21` [Compound 4.74, N6-[(2R)-2-amino-2-phenyl-ethyl]-N4-(2,2-difluoropropyl)-1-methyl-pyrazolo[3,4-d]pyrimidine-4,6-diamine], for which the half-inhibitory concentration (IC50) was 252 nM at BCDIN3D [1] (setting [3]) and 341 nM at BCDIN3D [2] (setting [4]).

`Cn1ncc2c(Nc3cccc(OC(F)F)c3)nc(NCC3(N)CC3)nc21` [Compound 2.21, 6-N-[(1-aminocyclopropyl)methyl]-4-N-[3-(difluoromethoxy)phenyl]-1-methylpyrazolo[3,4-d]pyrimidine-4,6-diamine]: the IC50 came out at 514 nM at BCDIN3D [1] (setting [3]) and 2470 nM on BCDIN3D [2] (setting [4]).

As for `Cc1ccc(CNc2nc(NCC(C)N)nc3c2cnn3C)cc1Cl` (centres unmarked) [Compound 3.01, 6-N-(2-aminopropyl)-4-N-[(3-chloro-4-methylphenyl)methyl]-1-methylpyrazolo[3,4-d]pyrimidine-4,6-diamine], the results for the IC50 against BCDIN3D [1] (setting [3]) and at BCDIN3D [2] (setting [4]) were 3320 nM and 2280 nM, respectively.

Turning to `Cn1ncc2c(NC3(C)CC3)nc(NC[C@H](N)c3ccccc3)nc21` [Compound 4.77, N6-[(2R)-2-amino-2-phenyl-ethyl]-1-methyl-N4-(1-methylcyclopropyl)pyrazolo[3,4-d]pyrimidine-4,6-diamine], the values for the half-maximal inhibitory concentration (IC50) on BCDIN3D [1] (setting [3]) and against BCDIN3D [2] (setting [4]) were 2770 nM and 1970 nM, respectively.

As to `Cn1ncc2c(NC3CC(F)(F)C3)nc(NCC(N)c3ccncc3)nc21` (centres unmarked) [Compound 5.27, N6-[2-amino-2-(4-pyridyl)ethyl]-N4-(3,3-difluorocyclobutyl)-1-methyl-pyrazolo[3,4-d]pyrimidine-4,6-diamine], the IC50 on BCDIN3D [1] (setting [3]) worked out at 2810 nM; at BCDIN3D [2] (setting [4]), 10000 nM.

As to `[2H]C([2H])([2H])n1ncc2c(Nc3ccc(C(F)(F)F)nc3)nc(NCC(C)(N)c3ccccc3)nc21` (centres unmarked) [Compound 4.27, N6-(2-amino-2-phenyl-propyl)-1-(trideuteriomethyl)-N4-[6-(trifluoromethyl)-3-pyridyl]pyrazolo[3,4-d]pyrimidine-4,6-diamine], the IC50 against BCDIN3D [1] (setting [3]) worked out at 46.6 nM; on BCDIN3D [2] (setting [4]), 610 nM.

On to `Cn1ncc2c(NC(C)(C)C)nc(NCC(N)c3ccccn3)nc21` (centres unmarked) [Compound 5.06, N6-[2-amino-2-(2-pyridyl)ethyl]-N4-tert-butyl-1-methyl-pyrazolo[3,4-d]pyrimidine-4,6-diamine], for which the 50% inhibitory concentration (IC50) against BCDIN3D [1] (setting [3]) worked out at 1100 nM; at BCDIN3D [2] (setting [4]), 1110 nM.

As for `COCCNc1nc(NCC(N)c2ccccc2)nc2c1cnn2C` (centres unmarked) [Compound 4.49, 6-N-(2-amino-2-phenylethyl)-4-N-(2-methoxyethyl)-1-methylpyrazolo[3,4-d]pyrimidine-4,6-diamine], the IC50 at BCDIN3D [1] (setting [3]) was determined as 3390 nM; on BCDIN3D [2] (setting [4]), 6060 nM.

Take `Cn1ncc2c(NCC3(F)CCC3)nc(NC[C@H](N)c3ccccc3)nc21` [Compound 4.107, N6-[(2R)-2-amino-2-phenyl-ethyl]-N4-[(1-fluorocyclobutyl)methyl]-1-methyl-pyrazolo[3,4-d]pyrimidine-4,6-diamine]: the concentration for half-maximal inhibition (IC50) against BCDIN3D [1] (setting [3]) is 280 nM; at BCDIN3D [2] (setting [4]), 618 nM.
